Molecules are shown by their SMILES.

The target of assay [1] is MAPK14 (human) (UniProt Q16539). The assay can be described thus: Inhibition of TNF-alpha Release in THP-1 Cell. The settings on record: thp1.
Assay [2] shares this target. The assay can be described thus: Inhibition of p38 MAP Kinase in Whole Blood.
Assay [3] has as its target MAPK14 (mouse). Description: Inhibition of MAPK14 Kinase Activity.

MAPK14 (human), sequence (Q16539 whole entry, looked up): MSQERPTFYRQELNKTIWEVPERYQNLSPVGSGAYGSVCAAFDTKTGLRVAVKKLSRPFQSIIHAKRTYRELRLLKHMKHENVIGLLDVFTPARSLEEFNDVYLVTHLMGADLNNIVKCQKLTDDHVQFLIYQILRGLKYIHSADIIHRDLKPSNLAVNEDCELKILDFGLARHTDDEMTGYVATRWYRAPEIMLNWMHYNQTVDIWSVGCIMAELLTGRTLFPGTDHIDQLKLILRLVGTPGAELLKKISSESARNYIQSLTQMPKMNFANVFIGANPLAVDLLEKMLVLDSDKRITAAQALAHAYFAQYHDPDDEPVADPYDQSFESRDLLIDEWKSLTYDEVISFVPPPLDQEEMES

One may read the IC50 as the point on the concentration scale where inhibition reaches its midpoint. `O=C1NCc2nc(Sc3ccc(F)cc3F)c(N3CC4CC3CN4CC3CC3)cc2N1c1c(Cl)cccc1Cl` (centres undefined): the figures for the IC50 in assay [1] and in assay [2] were 1.2 nM and 51 nM, respectively. Taken in the same sequence, the figures for `O=C1NCc2nc(Sc3ccc(F)cc3F)c(N3CCN(CCN4CCCC4)CC3)cc2N1c1c(Cl)cccc1Cl` were 2 nM and 9 nM. Taken in the same sequence, the figures for `O=C1NCc2nc(Sc3ccc(F)cc3F)c(N3CCOCC3)cc2N1c1c(Cl)cccc1Cl` were 22 nM and 400 nM.

Regarding `O=C1NCc2nc(Sc3ccc(F)cc3F)c(N3CCCCC3)cc2N1c1c(Cl)cccc1Cl`, the IC50 in assay [1] worked out at 500 nM. That is a sub-micromolar value. Consider `O=C1NCc2nc(Sc3ccc(F)cc3F)c(N3CCC(CCN4CCCC4)CC3)cc2N1c1c(Cl)cccc1Cl`, for which the values for the IC50 in assay [1] and in assay [2] were 7.3 nM and 940 nM, respectively.

`CN(C)CCN1CCN(c2cc3c(nc2Sc2ccc(F)cc2F)CNC(=O)N3c2c(Cl)cccc2Cl)CC1`: the IC50 in assay [1] is 0.7 nM; in assay [2], 14 nM. The like results for `CC1CN(c2cc3c(nc2Sc2ccc(F)cc2F)CNC(=O)N3c2c(Cl)cccc2Cl)CC(C)O1` (centres undefined) were, in that order, 25 nM and 72 nM. In the case of `O=c1ncc2nc(Sc3ccc(F)cc3F)ccc2n1-c1c(Cl)cccc1Cl`, in assay [3], the IC50 worked out at 600 nM. Turning to `CC(C)N1CC2CC1CN2c1cc2c(nc1Sc1ccc(F)cc1F)CNC(=O)N2c1c(Cl)cccc1Cl` (centres undefined), the concentration for half-maximal inhibition (IC50) is 1.6 nM in assay [1] and 65 nM in assay [2]. Taken in the same sequence, the figures for `CCN1CC2CC1CN2c1cc2c(nc1Sc1ccc(F)cc1F)CNC(=O)N2c1c(Cl)cccc1Cl` (centres undefined) were 1.3 nM and 42 nM. For `O=C1NCc2nc(Sc3ccc(F)cc3F)c(N3CC4CCC3C4)cc2N1c1c(Cl)cccc1Cl` (centres undefined), in assay [1], the IC50 amounted to 500 nM. As to `O=C1NCc2nc(Sc3ccc(F)cc3F)c(NC3CCNCC3)cc2N1c1c(Cl)cccc1Cl`, the IC50 turned out to be 9 nM in assay [1] and 17 nM in assay [2]. For the compound `O=C1NCc2nc(Sc3ccc(F)cc3F)c(N3CC4CC3CN4C3CC3)cc2N1c1c(Cl)cccc1Cl` (centres undefined), the values for the IC50 in assay [1] and in assay [2] were 8.2 nM and 220 nM, respectively. As for `O=C1NCc2nc(Sc3ccc(F)cc3F)c(N3CC4CC3CN4)cc2N1c1c(Cl)cccc1Cl` (centres undefined), the IC50 in assay [1] was 1.5 nM; in assay [2], 11.2 nM. In assay [2], `CC(C)N1CCN(c2cc3c(nc2Sc2ccc(F)cc2F)CNC(=O)N3c2c(Cl)cccc2Cl)CC1` gave an IC50 of 170 nM. This counts as sub-micromolar.

On to `O=C1NCc2nc(Sc3ccc(F)cc3F)c(N3CCNCC3)cc2N1c1c(Cl)cccc1Cl`, for which the results for the IC50 in assay [1] and in assay [2] were 5 nM and 20 nM, respectively. For the compound `O=C1NCc2nc(Sc3ccc(F)cc3F)c(OC3CCNCC3)cc2N1c1c(Cl)cccc1Cl`, the IC50 in assay [2] was determined as 63 nM.

For the origin of these results see the Kinase Knowledgebase extract (Sharma et al. 2016).
